In patent publication US20100324036A1, “SUBSTITUTED IMIDAZOPYRIDINE DERIVATIVES AS MELANOCORTIN-4 RECEPTOR ANTAGONISTS” (SANTHERA PHARMACEUTICALS (SCHWEIZ) AG, priority 2007, published 2010):

What was measured:
[1] = target: T1, hMC-4R (Homo sapiens, UniProt P32245); assay: Membrane binding assay, competition with fluorescence labeled NDP-alpha-MSH (fluorescence polarization); set-up: expressed in transfected cells; host or cells: HEK293 cells (membrane preparations); conditions: HEK293 cell membrane preparations
T1 sequence (P32245 whole entry): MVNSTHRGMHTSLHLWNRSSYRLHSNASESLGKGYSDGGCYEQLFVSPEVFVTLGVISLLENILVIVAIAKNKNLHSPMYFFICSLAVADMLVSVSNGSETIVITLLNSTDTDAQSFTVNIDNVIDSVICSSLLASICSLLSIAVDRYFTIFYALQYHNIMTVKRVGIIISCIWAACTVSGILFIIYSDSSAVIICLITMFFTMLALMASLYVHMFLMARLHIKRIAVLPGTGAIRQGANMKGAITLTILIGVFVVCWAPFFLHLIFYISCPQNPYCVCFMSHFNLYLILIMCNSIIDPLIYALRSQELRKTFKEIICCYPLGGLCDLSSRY

[2] = target: T1, hMC-4R; assay: Functional assay, cAMP formation in HEK293 membrane preparations (fluorescence polarization)

IC50 [1]	EC50 [2]	SMILES
< 100 nM	–	CCOC(=O)c1nc2ccc(C(=O)N(CCC(C)C)CCC(C)C)cn2c1CCCN1CCCC1 [Example 1]
100 to 1000 nM	–	CC(C)CCN(CCC(C)C)C(=O)c1ccc2nc(C(=O)N3CCCC3)c(CCCN3CCCC3)n2c1 [Example 2]
100 to 1000 nM	–	CNC(=O)c1nc2ccc(C(=O)N(CCC(C)C)CCC(C)C)cn2c1CCCN1CCCC1 [Example 3]
100 to 1000 nM	–	CCNC(=O)c1nc2ccc(C(=O)N(CCC(C)C)CCC(C)C)cn2c1CCCN1CCCC1 [Example 4]
100 to 1000 nM	–	CC(C)CCN(CCC(C)C)C(=O)c1ccc2nc(CO)c(CCCN3CCCC3)n2c1 [Example 5]
100 to 1000 nM	–	CC(C)CCN(CCC(C)C)C(=O)c1ccc2nc(C3CC3)c(CCCN3CCCC3)n2c1 [Example 6]
100 to 1000 nM	100 to 1000 nM	CC(C)CCN(CCC(C)C)C(=O)c1ccc2nc(C(=O)OC(C)C)c(CCCN3CCCC3)n2c1 [Example 7]
> 1000 nM	100 to 1000 nM	CC(C)CCN(CCC(C)C)C(=O)c1ccc2nc(C#N)c(CCCN3CCCC3)n2c1 [Example 8]
< 100 nM	100 to 1000 nM	COCc1noc(-c2nc3ccc(C(=O)N(CCC(C)C)CCC(C)C)cn3c2CCCN2CCCC2)n1 [Example 9]
< 100 nM	< 100 nM	Cc1noc(-c2nc3ccc(C(=O)N(CCC(C)C)CCC(C)C)cn3c2CCCN2CCCC2)n1 [Example 10]
100 to 1000 nM	–	CC(C)CCN(CCC(C)C)C(=O)c1ccc2nc(-c3nc(C(C)(C)O)no3)c(CCCN3CCCC3)n2c1 [Example 11]
< 100 nM	–	CC(C)CCN(CCC(C)C)C(=O)c1ccc2nc(-c3nc(C4CC4)no3)c(CCCN3CCCC3)n2c1 [Example 12]
100 to 1000 nM	–	CC(C)CCN(CCC(C)C)C(=O)c1ccc2nc(-c3n[nH]c(=O)n3C)c(CCCN3CCCC3)n2c1 [Example 13]
100 to 1000 nM	–	CCOC(=O)CCc1nc2ccc(C(=O)N(CCC(C)C)CCC(C)C)cn2c1CCCN(C)C [Example 14]
100 to 1000 nM	–	CCOC(=O)c1nc2ccc(C(=O)N(CCC(C)C)CCC(C)C)cn2c1CCCN(C)C [Example 15]
100 to 1000 nM	–	COCc1noc(-c2nc3ccc(C(=O)N(CCC(C)C)CCC(C)C)cn3c2CCCN(C)C)n1 [Example 16]
100 to 1000 nM	–	Cc1noc(-c2nc3ccc(C(=O)N(CCC(C)C)CCC(C)C)cn3c2CCCN(C)C)n1 [Example 17]
100 to 1000 nM	100 to 1000 nM	CC(C)CCN(CCC(C)C)C(=O)c1ccc2nc(-c3nc(C(C)(C)O)no3)c(CCCN(C)C)n2c1 [Example 18]
< 100 nM	–	COCCOC(=O)c1nc2ccc(C(=O)N(CCC(C)C)CCC(C)C)cn2c1CCCN1CCCC1 [Example 19]
< 100 nM	–	CC(C)CCN(CCC(C)C)C(=O)c1ccc2nc(C(=O)OCC(C)C)c(CCCN3CCCC3)n2c1 [Example 20]
100 to 1000 nM	–	CC(C)CCN(CCC(C)C)C(=O)c1ccc2nc(N(C)c3ccccn3)c(CCCN3CCCC3)n2c1 [Example 21]
< 100 nM	–	CC(C)CCN(CCC(C)C)C(=O)c1ccc2nc(CNc3ccc4c(c3)OCO4)c(CCCN3CCCC3)n2c1 [Example 22]
100 to 1000 nM	–	COc1cccc(N(C)c2nc3ccc(C(=O)N(CCC(C)C)CCC(C)C)cn3c2CCCN2CCCC2)c1 [Example 23]
< 100 nM	–	CC(C)CCN(CCC(C)C)C(=O)c1ccc2nc(-c3ccc4nccn4c3)c(CCCN3CCCC3)n2c1 [Example 24]
< 100 nM	–	CC(C)CCN(CCC(C)C)C(=O)c1ccc2nc(CCCNC(=O)OC(C)(C)C)c(CCCN3CCCC3)n2c1 [Example 26]
< 100 nM	100 to 1000 nM	CC(C)CCN(CCC(C)C)C(=O)c1ccc2nc(CCCN(C)C)c(CCCN3CCCC3)n2c1 [Example 27]
< 100 nM	–	CC(C)CCN(CCC(C)C)C(=O)c1ccc2nc(CCCN)c(CCCN3CCCC3)n2c1 [Example 28]
100 to 1000 nM	–	CC(C)CCN(CCC(C)C)C(=O)c1ccc2nc(C(=O)N3CCN(C)CC3)c(CCCN3CCCC3)n2c1 [Example 29]
